# Activity calls are given as the source filed them. No cut-off for these calls is given here.
# Key:
# [1] = test system: MelJuSo UbG76V-YFP; assay: Inhibition of Ubiquitin-proteasome system in human MelJuSo UbG76V-YFP cells assessed as Hmox-1 accumulation 5 to 10 uM after 18 hrs by immunoblot method; format: cell-based
# [2] = test system: MelJuSo UbG76V-YFP; assay: Inhibition of Ubiquitin-proteasome system in human MelJuSo UbG76V-YFP cells assessed as accumulation of UbG76V-YFP protein at 5 to 10 uM after 18 hrs by immunoblot method; format: cell-based
# [3] = test system: MelJuSo UbG76V-YFP; assay: Inhibition of Ubiquitin-proteasome system in human MelJuSo UbG76V-YFP cells assessed as accumulation of K48-linked poly-ubiquitinated proteins at 5 to 10 uM after 18 hrs by immunoblot method; format: cell-based
# [4] = test system: MelJuSo UbG76V-YFP; assay: Inhibition of Ubiquitin-proteasome system in human MelJuSo UbG76V-YFP cells assessed as HSP70B' accumulation 5 to 10 uM after 18 hrs by immunoblot method; format: cell-based
# [5] = biological target: T1, 26S proteasome (Homo sapiens) (UniProt Q99460+P49721+P20618+P28074+P28062+P28065+P28072+O00487+P25786+P25787+P25788+P25789+P28066+P60900+O14818+Q8TAA3+P40306+A5LHX3+P49720+P28070+Q99436+Q16186+P35998+P62191+P43686+P62333+P17980+P62195+Q13200+O43242+O00232+O00231+Q15008+P51665+Q9UNM6+P55036+P48556+P60896); conditions: MelJuSo UbG76V-YFP, 0.1 uM
# Description: Inhibition of 20S proteasome in human MelJuSo UbG76V-YFP cells assessed as accumulation of K48-linked poly-ubiquitinated proteins at 0.1 uM after 6 hrs by immunoblot method
# [6] = test system: CLL; assay: (§1) Cytotoxicity against human CLL cells after 3 days by FMCA method; format: functional, cell-based
# [7] = organism: Homo sapiens; assay: (§2) Cytotoxicity against human Pseudomyxoma peritonei cells after 3 days by FMCA method; format: functional, cell-based
# [8] = biological target: T1, 26S proteasome (Homo sapiens); conditions: MelJuSo UbG76V-YFP, 0.1 uM; remark: listed apart in the source
# Description: Inhibition of 20S proteasome in human MelJuSo UbG76V-YFP cells assessed as accumulation of UbG76V-YFP protein at 0.1 uM after 6 hrs by immunoblot method
# [9] = test system: Cancer cell lines; assay: (§3) Cytotoxicity against human Colon cancer cells after 3 days by FMCA method; format: functional, cell-based
# [10] = test system: MelJuSo UbG76V-YFP; assay: Inhibition of Ubiquitin-proteasome system in human MelJuSo UbG76V-YFP cells assessed as accumulation of UbG76V-YFP protein at 5 uM after 18 hrs by immunoblot method; format: cell-based
# [11] = test system: HEK293; assay: Inhibition of Ubiquitin-proteasome system in human HEK293 cells assessed as accumulation of ornithine decarboxylase-green fluorescent fusion protein at 5 uM after 16 hrs; format: cell-based
# [12] = test system: MelJuSo UbG76V-YFP; assay: Inhibition of Ubiquitin-proteasome system in human MelJuSo UbG76V-YFP cells assessed as HSP70B' accumulation 50 uM after 18 hrs by immunoblot method; format: cell-based
# [13] = Cytotoxicity against human RPMI18226 cells after 3 days by FMCA method; format: functional, cell-based; conditions: RPMI18226, 72 h
# [14] = Cytotoxicity against human MelJuSo cells after 3 days by FMCA method; format: functional, cell-based; conditions: MEL-JUSO, 72 h
# [15] = test system: MelJuSo UbG76V-YFP; assay: Inhibition of Ubiquitin-proteasome system in human MelJuSo UbG76V-YFP cells assessed as accumulation of UbG76V-YFP protein at 50 uM after 18 hrs by immunoblot method; format: cell-based
# [16] = test system: MelJuSo UbG76V-YFP; assay: Inhibition of Ubiquitin-proteasome system in human MelJuSo UbG76V-YFP cells assessed as HSP70B' accumulation 5 to 20 uM after 18 hrs by immunoblot method; format: cell-based
# [17] = test system: HL-60; assay: Cytotoxicity against human HL60 cells after 3 days by FMCA method; format: functional, cell-based; conditions: HL-60, 72 h
# [18] = test system: HCT-116; assay: Cytotoxicity against human HCT116 cells after 3 days by FMCA method; format: functional, cell-based; conditions: HCT-116, 72 h
# [19] = biological target: T1, 26S proteasome (Homo sapiens); assay: Inhibition of erythrocyte 20S proteasome (unknown origin) assessed as inhibition of chymotrypsin activity at 50 uM after 15 mins using Suc-LLVY-AMC substrate by fluorescence assay; format: protein-complex assay
# [20] = test system: MelJuSo UbG76V-YFP; assay: Inhibition of Ubiquitin-proteasome system in human MelJuSo UbG76V-YFP cells assessed as accumulation of K48-linked poly-ubiquitinated proteins at 5 uM by immunoblot method; format: cell-based
# [21] = test system: CCRF-CEM; assay: Cytotoxicity against human CCRF-CEM cells after 3 days by FMCA method; format: functional, cell-based; conditions: 72 h
# [22] = test system: MelJuSo UbG76V-YFP; assay: Inhibition of Ubiquitin-proteasome system in human MelJuSo UbG76V-YFP cells assessed as p21 accumulation 20 to 50 uM after 18 hrs by immunoblot method; format: cell-based
# [23] = as §1; format: functional, cell-based; conditions: 72 h
# [24] = test system: MelJuSo UbG76V-YFP; assay: Inhibition of Ubiquitin-proteasome system in human MelJuSo UbG76V-YFP cells assessed as accumulation of K48-linked poly-ubiquitinated proteins at 5 to 100 uM after 18 hrs by immunoblot method; format: cell-based
# [25] = as §2; format: functional, cell-based; conditions: 72 h
# [26] = Cytotoxicity against human NCI-H929 cells after 3 days by FMCA method; format: functional, cell-based; conditions: NCI-H929, 72 h
# [27] = test system: MelJuSo UbG76V-YFP; assay: Inhibition of Ubiquitin-proteasome system in human MelJuSo UbG76V-YFP cells assessed as accumulation of UbG76V-YFP protein at 5 uM; format: cell-based
# [28] = Cytotoxicity against human 8226/DOX40 cells after 3 days by FMCA method; format: functional, cell-based; conditions: 72 h
# [29] = test system: Kasumi 1; assay: Cytotoxicity against human Kasumi-1 cells after 3 days by FMCA method; format: functional, cell-based; conditions: Kasumi 1, 72 h
# [30] = as §3; format: functional, cell-based; conditions: Cancer cell lines, 72 h
# [31] = biological target: T1, 26S proteasome (Homo sapiens); assay: Inhibition of erythrocyte 20S proteasome (unknown origin) assessed as inhibition of chymotrypsin activity at 10 uM after 15 mins using Suc-LLVY-AMC substrate by fluorescence assay; format: protein-complex assay
# [32] = test system: MelJuSo UbG76V-YFP; assay: Inhibition of Ubiquitin-proteasome system in human MelJuSo UbG76V-YFP cells assessed as accumulation of K48-linked poly-ubiquitinated proteins at 10 uM after 18 hrs by immunoblot method; format: cell-based
smiles,measurement,setting,value
O=C(CCl)Nc1cccc(NC2=NS(=O)(=O)c3ccccc32)c1,inhibition,[1],Active
same,inhibition,[2],inactive
same,inhibition,[3],Active
same,inhibition,[4],inactive
COc1cc(/C=C/C(=O)N2CCC=CC2=O)cc(OC)c1OC,inhibition,[4],inactive
CC(C)C[C@H](NC(=O)[C@H](Cc1ccccc1)NC(=O)c1cnccn1)B(O)O,inhibition,[5],Active
same,inhibition,[6],Active
same,inhibition,[7],Active
same,inhibition,[8],Active
same,inhibition,[9],Active
CC1(C)C(N(O)C(=O)Nc2ccc(Cl)cc2)N(c2ccc(Cl)cc2)C(=O)N1CC(=O)N/N=C/C=C/c1ccc([N+](=O)[O-])o1 (stereo unspecified),inhibition,[1],Active
same,inhibition,[2],inactive
same,inhibition,[3],Active
same,inhibition,[4],inactive
O=P(Oc1ccccc1)(Oc1ccccc1)OC1C=CS(=O)(=O)C1 (stereo unspecified),inhibition,[1],Active
same,inhibition,[10],inactive
same,inhibition,[11],Active
same,inhibition,[12],Active
same,IC50,[13],1300 nM
same,IC50,[14],5.4 µM
same,inhibition,[15],Active
same,inhibition,[16],inactive
same,IC50,[17],2500 nM
same,IC50,[18],5.8 µM
same,inhibition,[19],Active
same,inhibition,[20],Active
same,IC50,[21],1800 nM
same,inhibition,[2],inactive
same,inhibition,[22],Active
same,IC50,[23],690 nM
same,inhibition,[24],Active
same,inhibition,[3],Active
same,inhibition,[4],inactive
same,IC50,[25],510 nM
same,IC50,[26],610 nM
same,inhibition,[27],Active
same,IC50,[28],2800 nM
same,IC50,[29],1900 nM
same,IC50,[30],1700 nM
same,inhibition,[31],inactive
same,inhibition,[32],Active
